# US3932668A, “Composition for treating swine scour” (priority 1971, dated 1976)
# Entries after “also recorded” stand apart in the source; their conditions may differ. Counter-ions that a name gives are not always drawn.
# Legend:
# Tricophyton asteroides = test: Antimicrobial spectrum, minimum inhibition concentration; assay type: cell-based
# [1] = test system: Streptococcus haemolyticus cook; test: as above; assay type: cell-based
# [2] = test system: Cryptococcus neoformans 301; test: as above; assay type: cell-based
# [3] = test system: Staphylococcus aureus 209-p; test: as above; assay type: cell-based
# Salmonella typhi O-901-W = test: as above; assay type: cell-based; settings: Salmonella enterica
# [4] = Toxicity (LD50) against mice; assay type: in vivo; settings: mouse, in vivo
# Text: (§1) As is well known, LD50, or the median lethal dose, is the dose which is fatal to 50% of the test animals, and the larger the LD50 is, the lower the toxicity of the test material is.
# mice = test: Toxicity (LD50) against mice; assay type: in vivo; settings: intraperitoneal administration
# Text: as §1
# Escherichia coli 0-135 = test: Antimicrobial spectrum, minimum inhibition concentration; assay type: cell-based; settings: 0135
# Escherichia coli 0-78 = test: as above; assay type: cell-based; settings: 078
# Escherichia coli 0-20 = test: as above; assay type: cell-based; settings: 020
# [5] = Absorption, residue and cross resistance as agent for swine scours
# El-tor vibrio = test: Antimicrobial spectrum, minimum inhibition concentration; assay type: cell-based
# [6] = Absorption, residue and cross resistance as feed additive (poultry)
# Escherichia coli 0-16 = test: Antimicrobial spectrum, minimum inhibition concentration; assay type: cell-based; settings: 016
# [7] = Growth (increased body weights) of starting chicks raised on mixed feed for 10 weeks; assay type: in vivo; settings: for Weight Increase Index: non-added group = 100.0
# Text: An amount of 2,3,3-triiodo-allyl-methyl ether as shown in Table 3 was uniformly mixed into one ton of a poultry compound feed. The 2,3,3-triiodo-allyl-methyl ether had been premixed with 100 times its weight of defatted rice bran. Using this mixed feed, 20 starting chicks were raised for 10 weeks.
# [8] = test system: Aspergillus fumigatus Saito; test: Antimicrobial spectrum, minimum inhibition concentration; assay type: cell-based
# Escherichia coli 0-83 = test: as above; assay type: cell-based; settings: 083
# [9] = Field clinical test to treat the scours of pigs; assay type: in vivo; design: key to Severity of Conditions, 4th day / Severity of Conditions, 5th day: +++: watery feces; ++: muddy feces; +: soft feces; --: normal feces
# Description: In use, 2,3,3-triiodo-allyl-methyl ether in crystal form is formed into a fine powder, and either coated with gelatin to a content of about 10% of the ether powder or diluted 10-fold with lactose. It is used in an amount of about 10 mg or more per kilogram of the body weight of the swine in one dosage, and may be increased according to the case. Usually, it is administered twice on the first day, and thereafter, once a day for 3 to 4 days. By this method of treatment, the disease is generally cured in about 5 days.
# 2,3,3-triiodo-allyl-methyl ether was finely divided in a mortar, and then diluted 10-fold with lactose. A field clinical test was performed using this formulation to treat the scours of 41 pigs. The formulation was administered orally twice on the first day and once a day for the next 3 to 4 days. In this table, the symbols +++, ++, + and -- have the following meanings: […]
# Escherichia coli 0-142 = test: Antimicrobial spectrum, minimum inhibition concentration; assay type: cell-based; settings: 0142
# Candida albicans Totuka = test: as above; assay type: cell-based
# Escherichia coli 0-139 = test: as above; assay type: cell-based; settings: 0139
# [10] = Comparative experiment: effect of kanamycin sulfate against scours of swine (control); assay type: in vivo; design: key to Severity of Conditions, 1st day / Severity of Conditions, 2nd day / Severity of Conditions, 3rd day / Severity of Conditions, 4th day / Severity of Conditions, 5th day: +++: watery feces; ++: muddy feces; +: soft feces; --: normal feces; settings: individual swine (one table line each), single dosage 60-150 mg/Kg
# Text: Effect of Kanamycin Sulfate against Scours of […]
# [11] = chicks, inferred from body weight at great quantities
# [12] = individual pigs (one table line each), oral, single dosage 35-200 mg/Kg, diluted 10-fold with lactose
# [13] = chicks, comparative antibiotic, 20 g
smiles,measurement,setting,value
"COCC(I)=C(I)I [2,3,3-triiodo-allyl-methyl ether, methyl-2,3,3-triiodoallylether]",MIC,Tricophyton asteroides,1.56 µg/mL
same,MIC,[1],12.5 µg/mL
same,MIC,[2],0.78 µg/mL
same,MIC,[3],6.25 µg/mL
same,MIC,Salmonella typhi O-901-W,3.12 µg/mL
same,LD50,"[4]; ip, intraperitoneal administration",50 to 100 mg/kg
same,LD50,[4]; oral administration,> 1000 mg/kg
same,selectivity ratio,"[4]; times or more as great, read-out: LD50 in oral administration relative to that in intraperitoneal administration",10 to 20
same,LD50,mice,50 to 100 mg/kg
same,MIC,Escherichia coli 0-135,3.12 µg/mL
same,MIC,Escherichia coli 0-78,3.12 µg/mL
same,MIC,Escherichia coli 0-20,0.78 µg/mL
same,Cross resistance,[5]; agent for swine scours,does not have cross resistance
same,Absorption by the digestive tract of swine,[5]; swine,hardly absorbed
same,Build-up of residue,[5]; swine,does not cause a build-up of residue
same,MIC,El-tor vibrio,3.12 µg/mL
same,Cross resistance,[6]; feed additive for poultry,does not have cross resistance
same,Absorption by the digestive tract of poultry,[6]; poultry,hardly absorbed
same,Residue build-up,[6]; poultry,free from residue build-up
same,MIC,Escherichia coli 0-16,6.25 µg/mL
same,Body weight after 10 weeks compared with the group not given the additive,[7]; all groups fed the additive,showed an increase in body weight after 10 weeks
same,"Body weight, 2nd week","[7]; chicks, 1 g/ton of feed",120.4
same,"Body weight, 4th week","[7]; chicks, 1 g/ton of feed",357.4
same,"Body weight, 6th week","[7]; chicks, 1 g/ton of feed",682.4
same,"Body weight, 8th week","[7]; chicks, 1 g/ton of feed",1084.4
same,"Body weight, 10th week","[7]; chicks, 1 g/ton of feed",1329.7
same,Weight Increase Index,"[7]; chicks, 1 g/ton of feed",109.9
same,"Body weight, 2nd week","[7]; chicks, 5 g/ton of feed",125.9
same,"Body weight, 4th week","[7]; chicks, 5 g/ton of feed",362.1
same,"Body weight, 6th week","[7]; chicks, 5 g/ton of feed",706.2
same,"Body weight, 8th week","[7]; chicks, 5 g/ton of feed",1099.3
same,"Body weight, 10th week","[7]; chicks, 5 g/ton of feed",1408.4
same,Weight Increase Index,"[7]; chicks, 5 g/ton of feed",116.4
same,"Body weight, 2nd week","[7]; chicks, 10 g/ton of feed",147.6
same,"Body weight, 4th week","[7]; chicks, 10 g/ton of feed",388.0
same,"Body weight, 6th week","[7]; chicks, 10 g/ton of feed",764.0
same,"Body weight, 8th week","[7]; chicks, 10 g/ton of feed",1150.7
same,"Body weight, 10th week","[7]; chicks, 10 g/ton of feed",1512.1
same,Weight Increase Index,"[7]; chicks, 10 g/ton of feed",125.0
same,"Body weight, 2nd week","[7]; chicks, 20 g/ton of feed",120.4
same,"Body weight, 4th week","[7]; chicks, 20 g/ton of feed",350.2
same,"Body weight, 6th week","[7]; chicks, 20 g/ton of feed",647.3
same,"Body weight, 8th week","[7]; chicks, 20 g/ton of feed",990.7
same,"Body weight, 10th week","[7]; chicks, 20 g/ton of feed",1303.1
same,Weight Increase Index,"[7]; chicks, 20 g/ton of feed",109.7
same,"Body weight, 2nd week","[7]; chicks, 50 g/ton of feed",124.3
same,"Body weight, 4th week","[7]; chicks, 50 g/ton of feed",359.4
same,"Body weight, 6th week","[7]; chicks, 50 g/ton of feed",671.3
same,"Body weight, 8th week","[7]; chicks, 50 g/ton of feed",1030.5
same,"Body weight, 10th week","[7]; chicks, 50 g/ton of feed",1382.2
same,Weight Increase Index,"[7]; chicks, 50 g/ton of feed",114.3
same,"Body weight, 2nd week","[7]; chicks, 100 g/ton of feed",128.2
same,"Body weight, 4th week","[7]; chicks, 100 g/ton of feed",349.8
same,"Body weight, 6th week","[7]; chicks, 100 g/ton of feed",663.1
same,"Body weight, 8th week","[7]; chicks, 100 g/ton of feed",946.7
same,"Body weight, 10th week","[7]; chicks, 100 g/ton of feed",1223.7
same,Weight Increase Index,"[7]; chicks, 100 g/ton of feed",101.2
same,"Body weight, 2nd week","[7]; chicks, 200 g/ton of feed",106.5
same,"Body weight, 4th week","[7]; chicks, 200 g/ton of feed",343.2
same,"Body weight, 6th week","[7]; chicks, 200 g/ton of feed",686.3
same,"Body weight, 8th week","[7]; chicks, 200 g/ton of feed",1039.6
same,"Body weight, 10th week","[7]; chicks, 200 g/ton of feed",1298.3
same,Weight Increase Index,"[7]; chicks, 200 g/ton of feed",107.3
same,Effect of great quantities on body weight,"[7]; chicks, addition of great quantities",did not cause a decrease in body weight
same,Absorption by the digestive tract,[7]; [11],little absorbed
same,Side-effects,[7]; [11],does not have side-effects
same,MIC,[8],3.12 µg/mL
same,MIC,Escherichia coli 0-83,12.5 µg/mL
same,Effect against the diarrhea of swine,"[9]; Table 4, comparison with kanamycin sulfate",superior effect
same,"Severity of Conditions, 4th day",[9]; [12],-- and + and ++
same,"Severity of Conditions, 5th day",[9]; [12],--
same,Time in which the disease is generally cured,"[9]; swine scours, about 10 mg or more per kg, twice first day, then once a day for 3 to 4 days",about 5 days
same,MIC,Escherichia coli 0-142,6.25 µg/mL
same,MIC,Candida albicans Totuka,3.12 µg/mL
same,MIC,Escherichia coli 0-139,12.5 µg/mL
NC[C@H]1O[C@H](O[C@H]2[C@H](O)[C@@H](O[C@H]3O[C@H](CO)[C@@H](O)[C@H](N)[C@H]3O)[C@H](N)C[C@@H]2N)[C@H](O)[C@@H](O)[C@@H]1O [Kanamycin Sulfate],Evaluation,[10],Cured; also recorded: Deaths
same,"Severity of Conditions, 1st day",[10],++ and + and +++
same,"Severity of Conditions, 2nd day",[10],++ and + and -- and +++
same,"Severity of Conditions, 3rd day",[10],+ and ++ and --
same,"Severity of Conditions, 4th day",[10],-- and + and ++
same,"Severity of Conditions, 5th day",[10],-- and + and ++
CC1(C)S[C@@H]2[C@H](NC(=O)Cc3ccccc3)C(=O)N2[C@H]1C(=O)O [Procaine Pencillin G],"Body weight, 2nd week",[7]; [13],127.3
same,"Body weight, 4th week",[7]; [13],374.6
same,"Body weight, 6th week",[7]; [13],664.2
same,"Body weight, 8th week",[7]; [13],1012.9
same,"Body weight, 10th week",[7]; [13],1324.0
same,Weight Increase Index,[7]; [13],109.5
